pIC50: −log10 of the molar value.
Biological target: T1, recombinant human 11 β-HSD1 (Homo sapiens, UniProt P28845)
T1 construct: made in house; host or cells: E. coli
Assay: 11 β-HSD1 SPA Assay (Scintillation Proximity Assay)
Assay type: biochemical
Summary of the method: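 E. coli-expressed human enzyme (30-100 nM) with tritiated cortisone 40 nM and NADPH 1 mM in HEPES buffer pH7.4, 2 hours at room temperature. Stopped with protein A SPA beads carrying anti-cortisol antibody and glycyrrhetinic acid; counted after overnight incubation. IC50 from percent inhibition between no-enzyme and no-compound signals.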

T1 sequence (P28845 whole entry): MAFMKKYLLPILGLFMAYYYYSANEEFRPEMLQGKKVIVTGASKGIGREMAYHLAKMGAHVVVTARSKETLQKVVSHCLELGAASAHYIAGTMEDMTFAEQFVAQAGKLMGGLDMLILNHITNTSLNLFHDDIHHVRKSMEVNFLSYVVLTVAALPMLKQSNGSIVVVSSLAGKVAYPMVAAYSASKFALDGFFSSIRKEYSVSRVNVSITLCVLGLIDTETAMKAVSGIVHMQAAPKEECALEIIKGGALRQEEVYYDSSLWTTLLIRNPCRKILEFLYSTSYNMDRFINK

Compound | pIC50
CC(C)(Oc1ccc(F)cc1S(C)(=O)=O)C(=O)N[C@H]1C[C@H]2CC[C@@H](C1)N2c1ccc(C(=O)NCC(F)(F)F)cn1 [Example 296, 6-{3-endo-[(2-{[4-fluoro-2-(methylsulfonyl)phenyl]oxy}-2-methylpropanoyl)amino]-8-azabicyclo[3.2.1]oct-8-yl}-N-(2,2,2-trifluoroethyl)pyridine-3-carboxamide] | > 6.70
CC(C)(Oc1cc(F)c(Cl)cc1Cl)C(=O)N[C@H]1C[C@H]2CC[C@@H](C1)N2c1ccc(S(C)(=O)=O)cc1 [Example 237, 2-[(2,4-dichloro-5-fluorophenyl)oxy]-2-methyl-N-{8-[4-(methylsulfonyl)phenyl]-8-azabicyclo[3.2.1]oct-3-endo-yl}propanamide] | > 6.70
CC(C)(Oc1ncc(C(F)(F)F)cc1Cl)C(=O)N[C@H]1C[C@H]2CC[C@@H](C1)N2c1ccc(C(N)=O)cn1 [Example 149, 6-{3-endo-[(2-{[3-chloro-5-(trifluoromethyl)pyridin-2-yl]oxy}-2-methylpropanoyl)amino]-8-azabicyclo[3.2.1]oct-8-yl}pyridine-3-carboxamide] | > 6.70
COc1ccc(OC(C)(C)C(=O)NC2CC3CCC(C2)N3c2ccc(S(C)(=O)=O)cn2)c(Cl)c1 (stereo not drawn) [Example 253, 2-{[2-chloro-4-(methyloxy)phenyl]oxy}-2-methyl-N-{8-[5-(methylsulfonyl)pyridin-2-yl]-8-azabicyclo[3.2.1]oct-3-endo-yl}propanamide] | > 6.70
CC(C)(Oc1ccc(Cl)cc1CCO)C(=O)N[C@H]1C[C@H]2CC[C@@H](C1)N2c1ccc(C(=O)NCC(F)(F)F)cn1 [Example 383, 6-[3-endo-({2-[4-chloro-2-(2-hydroxyethyl)phenoxy]-2-methylpropanoyl}amino)-8-azabicyclo[3.2.1]oct-8-yl]-N-(2,2,2-trifluoroethyl)pyridine-3-carboxamide] | > 6.70
CC(C)(O)CNC(=O)c1ccc(N2[C@@H]3CC[C@H]2C[C@@H](NC(=O)C(C)(C)Oc2ccc(Cl)cc2Cl)C3)nc1 [Example 396, 6-(3-endo-{[2-(2,4-dichlorophenoxy)-2-methylpropanoyl]amino}-8-azabicyclo[3.2.1]oct-8-yl)-n-(2-hydroxy-2-methylpropyl)pyridine-3-carboxamide] | > 6.70
CC(C)(Oc1ccc2ccccc2c1)C(=O)N[C@H]1C[C@H]2CC[C@@H](C1)N2c1ccc(C(N)=O)cn1 [Example 316, 6-(3-endo-{[2-methyl-2-(naphthalen-2-yloxy)propanoyl]amino}-8-azabicyclo[3.2.1]oct-8-yl)pyridine-3-carboxamide] | > 6.70
CC(C)(Oc1ncc(Cl)cc1Cl)C(=O)N[C@H]1C[C@H]2CC[C@@H](C1)N2c1ccc(S(N)(=O)=O)cn1 [Example 191, N-{8-[5-(aminosulfonyl)pyridin-2-yl]-8-azabicyclo[3.2.1]oct-3-endo-yl}-2-[(3,5-dichloropyridin-2-yl)oxy]-2-methylpropanamide] | > 6.70
CC(C)(Oc1ccc(F)cc1Cl)C(=O)N[C@H]1C[C@H]2CC[C@@H](C1)N2c1ccc(S(C)(=O)=O)cn1 [Example 155, 2-[(2-chloro-4-fluorophenyl)oxy]-2-methyl-N-{8-[5-(methylsulfonyl)pyridin-2-yl]-8-azabicyclo[3.2.1]oct-3-endo-yl}propanamide] | > 6.70
C[C@H](NC(=O)c1ccc(N2C3CCC2CC(NC(=O)C(C)(C)Oc2ccc(C(F)F)cc2Cl)C3)nc1)C(F)(F)F (stereo partly drawn) [Example 453, 6-[3-endo-({2-[2-chloro-4-(difluoromethyl)phenoxy]-2-methylpropanoyl}amino)-8-azabicyclo[3.2.1]oct-8-yl]-N-[(2S)-1,1,1-trifluoropropan-2-yl]pyridine-3-carboxamide] | > 6.70
CC(C)(Oc1ccc(Cl)cc1Cl)C(=O)N[C@H]1C[C@H]2CC[C@@H](C1)N2c1ccc(C(=O)NC2COC2)cn1 [Example 317, 6-[3-endo-({2-[(2,4-dichlorophenyl)oxy]-2-methylpropanoyl}amino)-8-azabicyclo[3.2.1]oct-8-yl]-N-oxetan-3-ylpyridine-3-carboxamide] | > 6.70
CC(C)(Oc1ccc(Cl)cc1Cl)C(=O)NC1CC2CCC(C1)N2c1ccc(C(=O)NC(CO)C(F)(F)F)cn1 (stereo not drawn) [Example 463, 6-(3-endo-{[2-(2,4-dichlorophenoxy)-2-methylpropanoyl]amino}-8-azabicyclo[3.2.1]oct-8-yl)-N-(1,1,1-trifluoro-3-hydroxypropan-2-yl)pyridine-3-carboxamide] | > 6.70
CC(C)(Oc1ccc(Cl)c(F)c1)C(=O)N[C@H]1C[C@H]2CC[C@@H](C1)N2c1ccc(S(C)(=O)=O)cc1 [Example 241, 2-[(4-chloro-3-fluorophenyl)oxy]-2-methyl-N-{8-[4-(methylsulfonyl)phenyl]-8-azabicyclo[3.2.1]oct-3-endo-yl}propanamide] | > 5.70
CC(C)(Oc1cccc(Cl)c1)C(=O)N[C@H]1C[C@H]2CC[C@@H](C1)N2c1ccc(C(=O)NC2CC2)cn1 [Example 14, 6-[3-endo-({2-[(3-chlorophenyl)oxy]-2-methylpropanoyl}amino)-8-azabicyclo[3.2.1]oct-8-yl]-N-cyclopropylpyridine-3-carboxamide] | > 6.70
C[C@@H](NC(=O)c1ccc(N2C3CCC2CC(NC(=O)C(C)(C)Oc2ccc(Cl)cc2Cl)C3)nc1)C(F)(F)F (stereo partly drawn) [Example 373, 6-(3-endo-{[2-(2,4-dichlorophenoxy)-2-methylpropanoyl]amino}-8-azabicyclo[3.2.1]oct-8-yl)-N-[(2R)-1,1,1-trifluoropropan-2-yl]pyridine-3-carboxamide] | > 6.70
CC(C)(Oc1ccc(F)cc1Cl)C(=O)N[C@H]1C[C@H]2CC[C@@H](C1)N2c1ncc(C(=O)NCC(F)(F)F)cc1F [Example 159, 6-[3-endo-({2-[(2-chloro-4-fluorophenyl)oxy]-2-methylpropanoyl}amino)-8-azabicyclo[3.2.1]oct-8-yl]-5-fluoro-N-(2,2,2-trifluoroethyl)pyridine-3-carboxamide] | > 6.70
CC(C)(C(=O)N[C@H]1C[C@H]2CC[C@@H](C1)N2c1ccc(C(=O)NC2CC2)cn1)c1ccc(Cl)cc1 [Example 20, 6-(3-endo-{[2-(4-chlorophenyl)-2-methylpropanoyl]amino}-8-azabicyclo[3.2.1]oct-8-yl)-N-cyclopropyipyridine-3-carboxamide] | > 6.70
CC(C)(Oc1cc(F)c(F)cc1F)C(=O)N[C@H]1C[C@H]2CC[C@@H](C1)N2c1ccc(S(C)(=O)=O)cn1 [Example 232, 2-methyl-N-{8-[5-(methylsulfonyl)pyridin-2-yl]-8-azabicyclo[3.2.1]oct-3-endo-yl}-2-[(2,4,5-trifluorophenyl)oxy]propanamide] | > 6.70
CC(C)(Oc1ccc(Cl)cc1OCCn1ccnc1)C(=O)N[C@H]1C[C@H]2CC[C@@H](C1)N2c1ccc(C(=O)NCC(F)(F)F)cn1 [Example 387, 6-{3-endo-[(2-{4-chloro-2-[2-(1H-imidazol-1-yl)ethoxy]phenoxy}-2-methylpropanoyl)amino]-8-azabicyclo[3.2.1]oct-8-yl}-N-(2,2,2-trifluoroethyl)pyridine-3-carboxamide] | > 5.70
CC(C)(Oc1cc(OC(C)(C)C(=O)N[C@H]2C[C@H]3CC[C@@H](C2)N3c2ccc(C(=O)NCC(F)(F)F)cn2)c(Cl)cc1Cl)C(N)=O [Example 426, 6-{3-endo-[(2-{5-[(1-amino-2-methyl-1-oxopropan-2-yl)oxy]-2,4-dichlorophenoxy}-2-methylpropanoyl)amino]-8-azabicyclo[3.2.1]oct-8-yl}-N-(2,2,2-trifluoroethyl)pyridine-3-carboxamide] | > 6.70
C=C(C)c1cc(OC(C)(C)C(=O)N[C@H]2C[C@H]3CC[C@@H](C2)N3c2ccc(C(=O)NCC(F)F)cn2)c(Cl)cc1Cl [Example 478, 6-[3-endo-({2-[2,4-dichloro-5-(prop-1-en-2-yl)phenoxy]-2-methylpropanoyl}amino)-8-azabicyclo[3.2.1]oct-8-yl]-N-(2,2-difluoroethyl)pyridine-3-carboxamide] | > 6.70
CC(C)(Oc1ccc(Cl)cc1C(F)(F)F)C(=O)NC1CC2CCC(C1)N2c1ccc(C(=O)NC2CC2(F)F)cn1 (stereo not drawn) [Example 345, 6-[3-endo-({2-[4-chloro-2-(trifluoromethyl)phenoxy]-2-methylpropanoyl}amino)-8-azabicyclo[3.2.1]oct-8-yl]-N-(2,2-difluorocyclopropyl)pyridine-3-carboxamide] | > 6.70
CC(C)(C(=O)N[C@H]1C[C@H]2CC[C@@H](C1)N2c1ccc(C(N)=O)cn1)S(=O)(=O)c1ccc(Cl)cc1Cl [Example 274, 6-[3-endo-({2-[(2,4-dichlorophenyl)sulfonyl]-2-methylpropanoyl}amino)-8-azabicyclo[3.2.1]oct-8-yl]pyridine-3-carboxamide] | > 6.70
CC(C)(Oc1ccc(Cl)c(Cl)c1)C(=O)N[C@H]1C[C@H]2CC[C@@H](C1)N2c1ccc(S(N)(=O)=O)cn1 [Example 205, N-{8-[5-(aminosulfonyl)pyridin-2-yl]-8-azabicyclo[3.2.1]oct-3-endo-yl}-2-[(3,4-dichlorophenyl)oxy]-2-methylpropanamide] | > 6.70
CC(C)(Oc1ccc(Cl)cc1C(F)(F)F)C(=O)N[C@H]1C[C@H]2CC[C@@H](C1)N2c1ccc(C(N)=O)cn1 [Example 169, 6-{3-endo-[(2-{[4-chloro-2-(trifluoromethyl)phenyl]oxy}-2-methylpropanoyl)amino]-8-azabicyclo[3.2.1]oct-8-yl}pyridine-3-carboxamide] | > 6.70
C[C@@H](NC(=O)c1ccc(N2C3CCC2CC(NC(=O)C(C)(C)Oc2cc(F)c(Cl)cc2Cl)C3)nc1)C(F)(F)F (stereo partly drawn) [Example 450, 6-(3-endo-{[2-(2,4-dichloro-5-fluorophenoxy)-2-methylpropanoyl]amino}-8-azabicyclo[3.2.1]oct-8-yl)-N-[(2R)-1,1,1-trifluoropropan-2-yl]pyridine-3-carboxamide] | > 6.70
CC(=O)Nc1ccc(N2[C@@H]3CC[C@H]2C[C@@H](NC(=O)C(C)(C)Oc2ccc(Cl)cc2Cl)C3)nc1 [Example 94, N-{8-[5-(acetylamino)pyridin-2-yl]-8-azabicyclo[3.2.1]oct-3-endo-yl}-2-[(2,4-dichlorophenyl)oxy]-2-methylpropanamide] | > 6.70
